{
  "source": "patent US4268630A",
  "about": "“Microbiological production of ketones from C3 -C6 alkanes” (priority 1979, dated 1981)",
  "key": {"[1]": {"system": "Hansenula polymorpha ATCC 26012", "test": "Oxidation of sec-alcohols to ketones by cell suspensions of yeasts", "format": "cell-based"}, "[2]": {"system": "cell suspensions of C1-utilizers", "test": "Production of 2-butanone from 2-butanol / sec-alcohol oxidation by cell suspensions of the strains tested", "format": "cell-based", "conditions": "cell suspensions of C1-utilizers", "excerpt": "The substrate specificity for the oxidation of C3 -C6 secondary alcohols by the strains of C1 -utilizers was studied."}, "[3]": {"system": "Pichia sp. NRRL-Y-11328", "test": "Oxidation of sec-alcohols to ketones by cell suspensions of yeasts", "format": "cell-based"}, "[4]": {"system": "cell extracts of Kloeckera sp. strain A2 NRRL Y-11,420", "test": "NAD+-dependent oxidation of secondary alcohols by cell extracts of yeasts", "format": "biochemical"}, "[5]": {"system": "cell extracts of Hansenula polymorpha ATCC 26,012", "test": "NAD+-dependent oxidation of secondary alcohols by cell extracts of yeasts", "format": "biochemical"}, "[6]": {"system": "Candida utilis ATCC 26387", "test": "Oxidation of sec-alcohols to ketones by cell suspensions of yeasts", "format": "cell-based"}, "[7]": {"system": "cell extracts of Candida utilis ATCC 26,387", "test": "NAD+-dependent oxidation of secondary alcohols by cell extracts of yeasts", "format": "biochemical"}, "[8]": {"system": "cell-free soluble extract of Methylobacterium organophilum CRL 26 (NRRL B-11,222)", "test": "Oxidation of secondary alcohols by cell-free soluble extract (NAD added)", "format": "biochemical", "conditions": "soluble crude extract, grown on methanol", "description": "(§1) To prepare the cell-free secondary alcohol dehydrogenase (SADH) system, the washed cells were disrupted with a Wave Energy Ultrasonic Oscillator, Model W201 (Wave Energy System, Inc., Newtown, Pa.) and centrifuged at 20,000× g. for 30 minutes. […] The enzyme activity was measured with a fluorescence spectrophotometer (Perkin Elmer, Model MPF 44A) by following the formation of reduced NAD (EX 340 nm, Em 460 nm). The formation of reduced NAD was also followed with an absorption spectrophotometer at 340 nm. The assay system (3 ml.) contained: potassium phosphate buffer pH 7.0; 150 μmol.; NAD 1 μmol.; a given amount of enzyme preparation; and secondary alcohol 10 μmol. The reaction was started by the addition of substrate. One unit of enzyme activity represents the reduction of one μmole NAD per minute. Protein concentrations were determined by the Lowry method (J. Biol. Chem., 193: 255-275 (1951)).\n(§2) The experimental procedure for the tests reported in Table VIII were as follows: 1 mg protein of crude extract was added into a 0.5 ml. 0.05 M phosphate buffer (pH 7.0) in a 10-ml. vial. […] The reaction mixture was incubated at 30° C. on a water bath. A 3 μl sample was removed with a syringe at 15 min. of incubation and was assayed with g.l.c. Catalytic activity was also assayed by fluorescence spectrophotometry."}, "[9]": {"system": "cell-free soluble extract of Methylosinus trichosporium OB3b (NRRL B-11,196)", "test": "Oxidation of secondary alcohols by cell-free soluble extract (NAD added)", "format": "biochemical", "conditions": "soluble crude extract, grown on methanol", "description": "as §1, §2"}, "[10]": {"system": "cell-free soluble extract of Pseudomonas sp. CRL 75 (ATCC 21,439)", "test": "Oxidation of secondary alcohols by cell-free soluble extract (NAD added)", "format": "biochemical", "conditions": "soluble crude extract, grown on methanol", "description": "as §1, §2"}, "[11]": {"system": "cell-free soluble extract of Methylococcus capsulatus CRL M1 (NRRL B-11,219)", "test": "Oxidation of secondary alcohols by cell-free soluble extract (NAD added)", "format": "biochemical", "conditions": "soluble crude extract, grown on methanol", "description": "as §1, §2"}, "[12]": {"system": "Kloeckera sp. Strain A2 (NRRL Y-11,420)", "test": "Oxidation of sec-alcohols to ketones by cell suspensions of yeasts", "format": "cell-based"}, "[13]": {"system": "Torulopsis sp. Strain A1 (NRRL Y-11,419)", "test": "Oxidation of sec-alcohols to ketones by cell suspensions of yeasts", "format": "cell-based"}, "[14]": {"conditions": "cell extracts, grown on methanol, NAD+, gas chromatography"}, "[15]": {"conditions": "spectrophotometric, 2-butanol as substrate"}},
  "note": "Entries after “also recorded” stand apart in the source; their conditions may differ.",
  "data": [
    {"smiles": "CCC(C)O", "note": "(stereo not drawn) [2-Butanol, 2-butanol]", "values": [
      {"measurement": "Conversion Rate, sec-alcohol to ketone", "setting": "[1]; growth substrate Ethanol", "result": "4.8 μmoles/hr/mg of protein"},
      {"measurement": "Conversion Rate, sec-alcohol to ketone", "setting": "[1]; growth substrate Methanol", "result": "5.8 μmoles/hr/mg of protein"},
      {"measurement": "Conversion Rate, sec-alcohol to ketone", "setting": "[1]; growth substrate Methylamine", "result": "4.5 μmoles/hr/mg of protein"},
      {"measurement": "Conversion Rate, sec-alcohol to ketone", "setting": "[1]; growth substrate Methylformate", "result": "5.2 μmoles/hr/mg of protein"},
      {"measurement": "Conversion Rate, sec-alcohol to ketone", "setting": "[1]; growth substrate Propylamine", "result": "4.0 μmoles/hr/mg of protein"},
      {"measurement": "substrate specificity: rate of oxidation of secondary alcohols (in words)", "setting": "[2]", "result": "oxidized at the highest rate; also recorded: oxidized at higher rates"},
      {"measurement": "Conversion Rate, sec-alcohol to ketone", "setting": "[3]; growth substrate Ethanol", "result": "6.2 μmoles/hr/mg of protein"},
      {"measurement": "Conversion Rate, sec-alcohol to ketone", "setting": "[3]; growth substrate Methanol", "result": "6.8 μmoles/hr/mg of protein"},
      {"measurement": "Conversion Rate, sec-alcohol to ketone", "setting": "[3]; growth substrate Methylamine", "result": "5.1 μmoles/hr/mg of protein"},
      {"measurement": "Conversion Rate, sec-alcohol to ketone", "setting": "[3]; growth substrate Methylformate", "result": "6.9 μmoles/hr/mg of protein"},
      {"measurement": "Conversion Rate, sec-alcohol to ketone", "setting": "[3]; growth substrate Propylamine", "result": "2.1 μmoles/hr/mg of protein"},
      {"measurement": "Conversion Rate, secondary alcohol to methylketone", "setting": "[4]; [14]", "result": 5.9, "unit": "μmoles/hr/mg Protein"},
      {"measurement": "specific activities", "setting": "[4]; [15]", "result": "90 nmoles NAD^+ reduced per min. per mg. protein"},
      {"measurement": "Conversion Rate, secondary alcohol to methylketone", "setting": "[5]; [14]", "result": 5.2, "unit": "μmoles/hr/mg Protein"},
      {"measurement": "specific activities", "setting": "[5]; [15]", "result": "85 nmoles NAD^+ reduced per min. per mg. protein"},
      {"measurement": "Conversion Rate, sec-alcohol to ketone", "setting": "[6]; growth substrate Ethanol", "result": "5.2 μmoles/hr/mg of protein"},
      {"measurement": "Conversion Rate, sec-alcohol to ketone", "setting": "[6]; growth substrate Methanol", "result": "6.8 μmoles/hr/mg of protein"},
      {"measurement": "Conversion Rate, sec-alcohol to ketone", "setting": "[6]; growth substrate Methylamine", "result": "5.0 μmoles/hr/mg of protein"},
      {"measurement": "Conversion Rate, sec-alcohol to ketone", "setting": "[6]; growth substrate Methylformate", "result": "6.2 μmoles/hr/mg of protein"},
      {"measurement": "Conversion Rate, sec-alcohol to ketone", "setting": "[6]; growth substrate Propylamine", "result": "4.2 μmoles/hr/mg of protein"},
      {"measurement": "Conversion Rate, secondary alcohol to methylketone", "setting": "[7]; [14]", "result": 4.92, "unit": "μmoles/hr/mg Protein"},
      {"measurement": "specific activities", "setting": "[7]; [15]", "result": "78 nmoles NAD^+ reduced per min. per mg. protein"},
      {"measurement": "Oxidation Rate, sec-alcohol to methyl ketone", "setting": "[8]", "result": 2.5, "unit": "nmole/min/mg protein"},
      {"measurement": "Oxidation Rate, sec-alcohol to methyl ketone", "setting": "[9]", "result": 2.4, "unit": "nmole/min/mg protein"},
      {"measurement": "Oxidation Rate, sec-alcohol to methyl ketone", "setting": "[10]", "result": 25.0, "unit": "nmole/min/mg protein"},
      {"measurement": "Oxidation Rate, sec-alcohol to methyl ketone", "setting": "[11]", "result": 2.0, "unit": "nmole/min/mg protein"},
      {"measurement": "Conversion Rate, sec-alcohol to ketone", "setting": "[12]; growth substrate Ethanol", "result": "5.7 μmoles/hr/mg of protein"},
      {"measurement": "Conversion Rate, sec-alcohol to ketone", "setting": "[12]; growth substrate Methanol", "result": "5.9 μmoles/hr/mg of protein"},
      {"measurement": "Conversion Rate, sec-alcohol to ketone", "setting": "[12]; growth substrate Methylamine", "result": "5.4 μmoles/hr/mg of protein"},
      {"measurement": "Conversion Rate, sec-alcohol to ketone", "setting": "[12]; growth substrate Methylformate", "result": "5.9 μmoles/hr/mg of protein"},
      {"measurement": "Conversion Rate, sec-alcohol to ketone", "setting": "[12]; growth substrate Propylamine", "result": "4.2 μmoles/hr/mg of protein"},
      {"measurement": "Conversion Rate, sec-alcohol to ketone", "setting": "[13]; growth substrate Ethanol", "result": "4.7 μmoles/hr/mg of protein"},
      {"measurement": "Conversion Rate, sec-alcohol to ketone", "setting": "[13]; growth substrate Methanol", "result": "4.9 μmoles/hr/mg of protein"},
      {"measurement": "Conversion Rate, sec-alcohol to ketone", "setting": "[13]; growth substrate Methylamine", "result": "4.5 μmoles/hr/mg of protein"},
      {"measurement": "Conversion Rate, sec-alcohol to ketone", "setting": "[13]; growth substrate Methylformate", "result": "4.9 μmoles/hr/mg of protein"},
      {"measurement": "Conversion Rate, sec-alcohol to ketone", "setting": "[13]; growth substrate Propylamine", "result": "3.8 μmoles/hr/mg of protein"}
    ]}
  ]
}
